pIC50: −log10 of the molar value. In brackets after ≈: the same amount, converted by molar mass. Read-outs that look alike come from different tables or passages of the source.
How the values were obtained:
[1] = tested on: Escherichia coli ATCC 25922; experiment: MIC by standard broth microdilution (CLSI), Escherichia coli; type: cell-based
Protocol: (§1) The in vitro activity against bacteria was determined by standard broth microdilution according to the Clinical and Laboratory Standards Institute CLSI document (Performance Standards for Antimicrobial Susceptibility Testing) M100Ed29E (2019) and (Methods for Dilution Antimicrobial Susceptibility Test for Bacteria That Grow Aerobically) M07Ed11 (2018). The data were obtained using cation-adjusted Mueller Hinton broth medium (CAMHB), and additionally iron-depleted CAMHB medium (ID-CAMHB) for compounds with iron-chelating activity.

[2] = tested on: Klebsiella pneumoniae ATCC 43816; experiment: MIC by standard broth microdilution (CLSI), Klebsiella pneumoniae; type: cell-based
Protocol: as §1

[3] = tested on: Acinetobacter baumannii ATCC 15473; experiment: MIC by standard broth microdilution (CLSI), Acinetobacter baumannii; type: cell-based
Protocol: as §1

[4] = tested on: Pseudomonas aeruginosa ATCC 27853; experiment: MIC by standard broth microdilution (CLSI), Pseudomonas aeruginosa; type: cell-based
Protocol: as §1

[5] = tested on: Burkholderia cepacia CF and non-CF isolates, n = 5; experiment: MIC by standard broth microdilution (CLSI), Burkholderia cepacia isolates; type: cell-based
Protocol: as §1

[6] = Chromeazurol assay (iron-chelating property); type: physicochemical; details: for pIC50: absorbance at 630 nm
Protocol: The iron-chelating property was determined by the chromeazurol assay according to Schwyn B., et al, Universal Chemical Assay for the Detection and Determination of Siderophores, 1987. Analytical Biochemistry 160: 47-56. The assay uses the affinity of chrome azurol S/iron(III)/hexadecyltrimethylamimonium bromide for iron(III). When a strong chelator removes the iron from this dye, its color turns from blue to orange and the absorbance measured at 630 nm is indicative for the chelating properties of a siderophore.

[7] = ATCC25922, EC ATCC 25922, cation-adjusted Mueller Hinton broth (CAMHB), read-out: MIC in CAMHB medium
[8] = ATCC25922, EC ATCC 25922, iron-depleted CAMHB (value in parentheses), read-out: MIC in ID-CAMHB medium
[9] = ATCC43816, KP ATCC 43816, cation-adjusted Mueller Hinton broth (CAMHB), read-out: MIC in CAMHB medium
[10] = ATCC43816, KP ATCC 43816, iron-depleted CAMHB (value in parentheses), read-out: MIC in ID-CAMHB medium
[11] = ATCC15473, AB ATCC 15473, cation-adjusted Mueller Hinton broth (CAMHB), read-out: MIC in CAMHB medium
[12] = ATCC15473, AB ATCC 15473, iron-depleted CAMHB (value in parentheses), read-out: MIC in ID-CAMHB medium
[13] = ATCC27853, PA ATCC 27853, cation-adjusted Mueller Hinton broth (CAMHB), read-out: MIC in CAMHB medium
[14] = ATCC27853, PA ATCC 27853, iron-depleted CAMHB (value in parentheses), read-out: MIC in ID-CAMHB medium
[15] = read-out: MIC in ID-CAMHB medium

SMILES | MIC [1, 7] | MIC [1, 8] | MIC [2, 9] | MIC [2, 10] | MIC [3, 11] | MIC [3, 12] | MIC [4, 13] | MIC [4, 14] | MIC ([5]; read-out: MIC in CAMHB medium) | MIC [5, 15] | pIC50 [6] | MIC ([5]; BC CF and non-CF isolates, n = 5 (MIC range), CAMHB, read-out: MIC in CAMHB medium) | iron-chelating activity compared with cefiderocol ([6]; versus the one measured for cefiderocol (table 1))
CC(C)(O/N=C(\C(=O)NC1C(=O)N2C(C(=O)O)=C(C=NO[C@H]3C[C@H](NC(=O)c4ccc(O)c(O)c4Cl)C3)CSC12)c1csc(N)n1)C(=O)O (relative stereo) [Example 7, 7-[[(2Z)-2-(2-aminothiazol-4-yl)-2-(1-carboxy-1-methyl-ethoxy)imino-acetyl]amino]-3-[[3-[(2-chloro-3,4-dihydroxy-benzoyl)amino]- trans-cyclobutoxy]iminomethyl]-8-oxo-5-thia-1-azabicyclo[4.2.0]oct-2-ene-2-carboxylic acid] | 0.5 µg/mL (≈ 0.677 µM) | 0.5 µg/mL (≈ 0.677 µM) | 0.12 µg/mL (≈ 0.163 µM) | 0.5 µg/mL (≈ 0.677 µM) | 2 µg/mL (≈ 2.71 µM) | 1 µg/mL (≈ 1.35 µM) | 2 µg/mL (≈ 2.71 µM) | 1 µg/mL (≈ 1.35 µM) | 0.03 to 0.12 µg/mL (≈ 0.0406 to 0.163 µM) | 0.03 to 0.12 µg/mL (≈ 0.0406 to 0.163 µM) | 5.33 |  | 
CC(C)(O/N=C(\C(=O)N[C@@H]1C(=O)N2C(C(=O)[O-])=C(C[N+]3(CCNC(=O)c4ccc(O)c(O)c4Cl)CCCC3)CS[C@H]12)c1csc(N)n1)C(=O)O [Cefiderocol, cefiderocol, reference compound] | 0.25 µg/mL (≈ 0.332 µM) | 0.25 µg/mL (≈ 0.332 µM) | 2 µg/mL (≈ 2.66 µM) | 0.5 µg/mL (≈ 0.665 µM) | 0.25 µg/mL (≈ 0.332 µM) | 0.12 µg/mL (≈ 0.16 µM) | 1 µg/mL (≈ 1.33 µM) | 0.5 µg/mL (≈ 0.665 µM) | ≤ 0.03 µg/mL | ≤ 0.03 µg/mL | 4.16 |  | 
CC(C)(O/N=C(\C(=O)N[C@@H]1C(=O)N2C(C(=O)[O-])=C(C[n+]3ccccc3)CS[C@H]12)c1csc(N)n1)C(=O)O [Ceftazidime, reference compound] | 0.12 µg/mL (≈ 0.22 µM) |  | 0.12 µg/mL (≈ 0.22 µM) |  | 4 µg/mL (≈ 7.32 µM) |  | 2 µg/mL (≈ 3.66 µM) |  |  |  | < 4.00 | 4 to 16 µg/mL (≈ 7.32 to 29.3 µM) | 
Cn1c(N)c(NC(=O)NCCN)c[n+]1CC1=C(C(=O)O)N2C(=O)[C@@H](NC(=O)/C(=N\OC(C)(C)C(=O)[O-])c3nsc(N)n3)[C@H]2SC1 [Ceftolozane, reference compound] | 0.25 µg/mL (≈ 0.375 µM) |  | 0.25 µg/mL (≈ 0.375 µM) |  | 2 µg/mL (≈ 3 µM) |  | 0.5 µg/mL (≈ 0.75 µM) |  | 2 to 8 µg/mL (≈ 3 to 12 µM) |  | < 4.00 |  | 
CC(C)(O/N=C(\C(=O)N[C@@H]1C(=O)N2C(C(=O)O)=C(C=NOCc3cc(=O)c(O)cn3O)CS[C@H]12)c1csc(N)n1)C(=O)O [Example 1, (6R,7R)-7-[[(2Z)-2-(2-aminothiazol-4-yl)-2-(1-carboxy-1-methyl-ethoxy)imino-acetyl]amino]-3-[(1,5-dihydroxy-4-oxo-2-pyridyl)methoxyiminomethyl]-8-oxo-5-thia-1-azabicyclo[4.2.0]oct-2-ene-2-carboxylic acid] | 0.12 µg/mL (≈ 0.188 µM) | 0.25 µg/mL (≈ 0.392 µM) | ≤ 0.03 µg/mL | 0.25 µg/mL (≈ 0.392 µM) | 2 µg/mL (≈ 3.14 µM) | 0.5 µg/mL (≈ 0.784 µM) | 1 µg/mL (≈ 1.57 µM) | 0.25 µg/mL (≈ 0.392 µM) | 0.03 to 0.06 µg/mL (≈ 0.0471 to 0.0941 µM) | 0.03 to 0.12 µg/mL (≈ 0.0471 to 0.188 µM) | 5.14 |  | 
CC(C)(O/N=C(\C(=O)N[C@@H]1C(=O)N2C(C(=O)O)=C(C=NOCc3cc(=O)c(O)cn3O)CS[C@H]12)c1nsc(N)n1)C(=O)O [Example 2, (6R,7R)-7-[[(2Z)-2-(5-amino-1,2,4-thiadiazol-3-yl)-2-(1-carboxy-1-methyl-ethoxy)imino-acetyl]amino]-3-[(1,5-dihydroxy-4-oxo-2-pyridyl)methoxyiminomethyl]-8-oxo-5-thia-1-azabicyclo[4.2.0]oct-2-ene-2-carboxylic acid] | 0.06 µg/mL (≈ 0.094 µM) |  | 0.06 µg/mL (≈ 0.094 µM) |  | 1 µg/mL (≈ 1.57 µM) |  | 0.5 µg/mL (≈ 0.783 µM) | 0.12 µg/mL (≈ 0.188 µM) | 0.03 to 0.5 µg/mL (≈ 0.047 to 0.783 µM) | 0.03 to 0.5 µg/mL (≈ 0.047 to 0.783 µM) | 5.02 |  | 
Nc1nc(/C(=N/OCF)C(=O)N[C@@H]2C(=O)N3C(C(=O)O)=C(C=NOCc4cc(=O)c(O)cn4O)CS[C@H]23)ns1 [Example 3, (6R,7R)-7-[[(2Z)-2-(5-amino-1,2,4-thiadiazol-3-yl)-2-(fluoromethoxyimino)acetyl]amino]-3-[(1,5-dihydroxy-4-oxo-2-pyridyl)methoxyiminomethyl]-8-oxo-5-thia-1-azabicyclo[4.2.0]oct-2-ene-2-carboxylic acid] | ≤ 0.03 µg/mL | ≤ 0.03 µg/mL | ≤ 0.03 µg/mL | ≤ 0.03 µg/mL | 8 µg/mL (≈ 13.7 µM) | 16 µg/mL (≈ 27.4 µM) | 4 µg/mL (≈ 6.84 µM) | 0.5 µg/mL (≈ 0.855 µM) |  |  | 5.10 |  | 
CC(C)(O/N=C(\C(=O)NC1C(=O)N2C(C(=O)O)=C(C=NOCCNC(=O)c3ccc(O)c(O)c3Cl)CSC12)c1csc(N)n1)C(=O)O (stereo not shown) [Example 4, 7-[[(2Z)-2-(2-aminothiazol-4-yl)-2-(1-carboxy-1-methyl-ethoxy)imino-acetyl]amino]-3-[2-[(2-chloro-3,4-dihydroxy-benzoyl)amino]ethoxyiminomethyl]-8-oxo-5-thia-1-azabicyclo[4.2.0]oct-2-ene-2-carboxylic acid] | 0.25 µg/mL (≈ 0.351 µM) | 0.25 µg/mL (≈ 0.351 µM) | 0.06 µg/mL (≈ 0.0843 µM) | 0.06 µg/mL (≈ 0.0843 µM) | 4 µg/mL (≈ 5.62 µM) | 1 µg/mL (≈ 1.4 µM) | 2 µg/mL (≈ 2.81 µM) | 0.5 µg/mL (≈ 0.702 µM) | 0.03 to 0.12 µg/mL (≈ 0.0421 to 0.169 µM) | 0.03 to 0.06 µg/mL (≈ 0.0421 to 0.0843 µM) | 5.37 |  | an order of magnitude stronger
CC(C)(O/N=C(\C(=O)NC1C(=O)N2C(C(=O)O)=C(C=NOCCNC(=O)c3ccc(O)c(O)c3Cl)CSC12)c1nsc(N)n1)C(=O)O (stereo not shown) [Example 5, 7-[[(2Z)-2-(5-amino-1,2,4-thiadiazol-3-yl)-2-(1-carboxy-1-methyl-ethoxy)imino-acetyl]amino]-3-[2-[(2-chloro-3,4-dihydroxy-benzoyl)amino]ethoxyiminomethyl]-8-oxo-5-thia-1-azabicyclo[4.2.0]oct-2-ene-2-carboxylic acid] | 0.25 µg/mL (≈ 0.351 µM) | 0.25 µg/mL (≈ 0.351 µM) | 0.5 µg/mL (≈ 0.701 µM) | 1 µg/mL (≈ 1.4 µM) | 1 µg/mL (≈ 1.4 µM) | 0.5 µg/mL (≈ 0.701 µM) | 2 µg/mL (≈ 2.8 µM) | 0.5 µg/mL (≈ 0.701 µM) | 0.03 to 0.12 µg/mL (≈ 0.0421 to 0.168 µM) | 0.03 to 0.12 µg/mL (≈ 0.0421 to 0.168 µM) | 5.19 |  | 
Nc1nc(/C(=N/OCF)C(=O)NC2C(=O)N3C(C(=O)O)=C(C=NOCCNC(=O)c4ccc(O)c(O)c4Cl)CSC23)ns1 (stereo not shown) [Example 6, 7-[[(2Z)-2-(5-amino-1,2,4-thiadiazol-3-yl)-2-(fluoromethoxyimino)-acetyl]amino]-3-[2-[(2-chloro-3,4-dihydroxy-benzoyl)amino]ethoxyiminomethyl]-8-oxo-5-thia-1-azabicyclo[4.2.0]oct-2-ene-2-carboxylic acid] | 0.25 µg/mL (≈ 0.379 µM) | 0.12 µg/mL (≈ 0.182 µM) | ≤ 0.03 µg/mL | ≤ 0.03 µg/mL | 4 µg/mL (≈ 6.07 µM) | 4 µg/mL (≈ 6.07 µM) | 4 µg/mL (≈ 6.07 µM) | 1 µg/mL (≈ 1.52 µM) |  |  | 5.19 |  | 
CC(C)(O/N=C(\C(=O)NC1C(=O)N2C(C(=O)O)=C(C=NO[C@H]3CCN(C(=O)c4ccc(O)c(O)c4Cl)C3)CSC12)c1csc(N)n1)C(=O)O (stereo partly drawn) [Example 8, 7-[[(2Z)-2-(2-aminothiazol-4-yl)-2-(1-carboxy-1-methyl-ethoxy)imino-acetyl]amino]-3-{[(3S)-1-(2-chloro-3,4-dihydroxy-benzoyl)pyrrolidine-3-yl]oxyiminomethyl}-8-oxo-5-thia-1-azabicyclo[4.2.0]oct-2-ene-2-carboxylic acid] | 0.12 µg/mL (≈ 0.163 µM) | 0.12 µg/mL (≈ 0.163 µM) | < 0.03 µg/mL | < 0.03 µg/mL | 0.5 µg/mL (≈ 0.677 µM) | 0.5 µg/mL (≈ 0.677 µM) | 1 µg/mL (≈ 1.35 µM) | 0.25 µg/mL (≈ 0.339 µM) |  |  | 5.25 |  | 

Source: patent US12371441B2, “Siderophore cephalosporin conjugates and uses thereof” (ARIVA MED GMBH, priority 2019, dated 2025)
